Measurements taken from ChEMBL document CHEMBL5149985, “Discovery of cytotoxic natural products from Red Sea sponges: Structure and synthesis” (Eur J Med Chem, 2021).
Values belong to the molecule of their own block, whether it stands above or below them.

Key:
[1] = species: Homo sapiens; experiment: Inhibition of actin (unknown origin) polymerization at 1 uM incubated for 20 mins in presence of ATP by ELISA analysis relative to control
[2] = test system: MDA-MB-231; experiment: Anticancer activity against human MDA-MB-231 cells assessed as inhibition of cell growth incubated for 72 hrs by MTT assay; assay type: functional, cell-based; settings: MDA-MB-231, 72 h
[3] = Inhibition of actin (unknown origin) polymerization incubated for 20 mins in presence of ATP by ELISA analysis; parameters: species or system Homo sapiens
[4] = Inhibition of actin (unknown origin) polymerization at 100 nM incubated for 20 mins in presence of ATP by ELISA analysis relative to control; settings: Homo sapiens
[5] = test system: P388; experiment: Anticancer activity against mouse P388 cells assessed as cell growth inhibition; assay type: functional, cell-based
[6] = test system: KB 3-1; experiment: Anticancer activity against human KB 3-1 cells assessed as inhibition in cell growth; assay type: functional, cell-based
[7] = test system: HeLa; experiment: Anticancer activity against human HeLa cells assessed as inhibition of cell growth; assay type: functional, cell-based

SMILES: COc1ccc(CC(=O)N2C(=O)SC[C@H]2[C@@]2(OC)C[C@H]3C[C@@H](CC[C@H](C)/C=C\C=C\CC/C(C)=C\C(=O)O3)O2)cc1
inhibition [1]: 13%
IC50 [2]: 26200 nM
IC50 [3]: > 10000 nM
inhibition [4]: 0%

SMILES: CO[C@]1([C@@H]2CSC(=O)N2)C[C@H]2C[C@@H](CC[C@H](C)/C=C\C=C\CC/C(C)=C\C(=O)O2)O1
inhibition [1]: 21%
IC50 [2]: 23400 nM
IC50 [3]: 9230 nM
inhibition [4]: 6%

SMILES: CO[C@]1([C@@H]2CSC(=O)N2C)C[C@H]2C[C@@H](CC[C@H](C)/C=C\C=C\CC/C(C)=C\C(=O)O2)O1
inhibition [1]: 19%
IC50 [2]: 19900 nM
IC50 [3]: > 10000 nM
inhibition [4]: 11%

IC50 [5]: 6.7 nM
SMILES: NC(=O)Cc1cc(Br)c(O)c(Br)c1O

SMILES: CCN1C(=O)SC[C@H]1[C@@]1(OC)C[C@H]2C[C@@H](CC[C@H](C)/C=C\C=C\CC/C(C)=C\C(=O)O2)O1
inhibition [1]: 18%
IC50 [2]: > 50000 nM
IC50 [3]: > 10000 nM
inhibition [4]: 0%

IC50 [6]: 4.7 nM
SMILES: C[C@@H]1C(=O)C[C@H]2[C@@H](/C1=C/C[C@H]1[C@]3(C)CC[C@H](O)C(C)(C)O[C@H]3CC[C@]1(C)O)C(C)(C)CC[C@]2(C)O [SIPHOLENOL J]

IC50 [7]: 26 nM
SMILES: O=C(O)C(=O)c1c(-c2c[nH]c3cc(O)ccc23)ncc2[nH]c3ccc(O)cc3c12

SMILES: C=C(OO)C(C)CC[C@@]1(C)C(CC[C@H]2[C@]3(C)CC[C@H](O)C(C)(C)O[C@H]3CC[C@@]2(C)O)=C(C)CC[C@H]1O (some centres undefined)
IC50 [6]: 4.6 nM

IC50 [6]: 4.2 nM
SMILES: CC(C)=CCC[C@@]1(C)C(CC[C@H]2[C@]3(C)CC[C@H](O)C(C)(C)O[C@H]3CC[C@@]2(C)O)=C(C)CC[C@H]1O [SIPHONELLINOL D]

IC50 [6]: 5.6 nM
SMILES: CC1=CC[C@H]2[C@H](CC[C@]2(C)O)C(C)(C)[C@@H]1CC[C@H]1[C@]2(C)CC[C@@H](O)O[C@H]2CC[C@@]1(C)O

SMILES: CO[C@]1([C@@H]2CSC(=O)N2CCCO)C[C@H]2C[C@@H](CC[C@H](C)/C=C\C=C\CC/C(C)=C\C(=O)O2)O1
inhibition [1]: 21%
IC50 [2]: > 50000 nM
IC50 [3]: 8550 nM
inhibition [4]: 0%

IC50 [6]: 4.7 nM
SMILES: C[C@@H]1CC[C@H]2[C@@H](/C1=C/C[C@H]1[C@]3(C)CCC(=O)C(C)(C)O[C@H]3CC[C@]1(C)O)C(C)(C)CC[C@]2(C)O

IC50 [7]: 17.8 nM
SMILES: NC(=O)C[C@@]1(O)C=C(Cl)C(=O)C(Br)=C1

SMILES: CC1=C(CC[C@H]2[C@]3(C)CC[C@H](O)C(C)(C)O[C@H]3CC[C@@]2(C)O)[C@](C)(C/C=C/C(C)(C)OO)[C@H](O)CC1
IC50 [6]: 3.9 nM

IC50 [7]: 20 nM
SMILES: O=C(O)[C@H](O)Cc1c[nH]c2ccc(O)cc12 [HYRTIOERECTINE C]

IC50 [6]: 7.1 nM
SMILES: CC1=C(CC[C@H]2[C@]3(C)CC[C@H](O)C(C)(C)O[C@H]3CC[C@]2(C)O)[C@@H]2[C@H](CC1=O)[C@@](C)(O)CCC2(C)C [SIPHOLENOL K]

IC50 [5]: 7.2 nM
IC50 [7]: 12.8 nM
SMILES: C#C/C=C\CCCC/C=C\C#CC#CCCC/C=C\C#CCO [CALLYSPONGENOL C]

IC50 [5]: 7.3 nM
IC50 [7]: 16.9 nM
SMILES: C#C/C=C\CCCCC#CC#CC#CCCC/C=C\C#CCO [DEHYDROISOPHONOCHALYNOL]

SMILES: CC1=C(CC[C@H]2[C@]3(C)CC[C@H](O)C(C)(C)O[C@H]3CC[C@]2(C)O)[C@@H]2[C@H](CC1OO)[C@@](C)(O)CCC2(C)C (some centres undefined)
IC50 [6]: 4.7 nM

IC50 [7]: 20 nM
SMILES: C[C@H]1N[C@@H](C(=O)O)Cc2c1[nH]c1ccc(O)cc21 [HYRTIOERECTINE B]

IC50 [5]: 32.6 nM
IC50 [7]: 32.6 nM
SMILES: C#C/C=C\CCCCCCC#CC#CCCC/C=C\C#CCO [CALLYSPONGENOL B]
